Laboratory results as given in patent US6300501A, “Histidine-(N-benzyl glycinamide) inhibitors of protein farnesyl transferase” (Warner-Lambert Company, priority 1998, dated 2001).
Like-named read-outs stand apart in the source and are kept apart here.

How the values were obtained:
[1] = molecular target: T1, SF9 affinity purified rat farnesyl protein transferase (Rattus norvegicus, UniProt Q02293+Q04631); test: PFT inhibitory activity (radiolabeled farnesyl pyrophosphate, streptavidin bead assay); type: biochemical
T1 construct: made in house; host or cells: Sf9 insect cells (baculovirus system inferred from b7)
Description: The protein:farnesyl transferase (PFT) or farnesyl protein transferase (FPT) inhibitory activity of compounds of the present invention were assayed in HEPES buffer (pH 7.4) containing 5 mM potassium phosphate and 20 μM ZnCl2. The solution also contained 5 mM DTT (dithiothreitol), 5 mM MgCl2, and 0.1% PEG 8000. Assays were performed in 96 well plates (Wallec) and employed solutions composed of varying concentrations of a compound of the present invention in 100% DMSO (dimethylsulfoxide). Upon addition of both substrates, radiolabeled farnesyl pyrophosphate ([1^3 H], specific activity 15-30 Ci/mmol, final concentration 134 nM) and (biotinyl)-Ahe-Thr-Lys-Cys-Val-Ile-Met ([3aS[3a alpha, 4 beta, 6a alpha]-hexahydro-2-oxo-1H-thieno[3,4-d]imidazole-5-pentanoic acid]-[7-aminoheptanoic acid]-Thr-Lys-Cys-Val-Ile-Met) (Ahe is 7-aminoheptanoic acid, Thr is threonine, Lys is lysine, Cys is cysteine, Val is valine, Ile is isoleucine and Met is methionine) (final concentration 0.2 μM), the enzyme reaction was started by addition of SF9 affinity purified rat farnesyl protein transferase. After incubation at 30° C. for 30 minutes, the reaction was terminated by diluting the reaction 2.5-fold with a stop buffer containing 1.5 M magnesium acetate, 0.2 M H3 PO4, 0.5% BSA (bovine serum albumin), and strepavidin beads (Amersham) at a concentration of 1.3 mg/mL. After allowing the plate to settle for 30 minutes at room temperature, radioactivity was quantitated on a microBeta counter (Model 1450, Wallec). The assay was also carried out without 5 mM potassium phosphate.

[2] = system: H61 cells: NIH transformed 3T3 H-ras cells; test: Clonogenic assay (6 well plates, soft agar); type: cell-based; conditions: colonies counted after Day 13, read-out: Clonogenic Assay IC50
Description: Clonoaenic Assay (6 well lates)
Sometime previous to setting up an actual test:
1. Make up 1.5% Bacto Agar in Milli-Q water and autoclave.
2. Make up 500 mL 2× DMEM-HG without phenol red by combining the following:
1 bottle DMEM base powder (Sigma D-5030)
Adjust pH to 7.1 with HCL; filter sterilize.
1. Set up makeshift water bath (beaker of water with thermometer, on hot plate) in the hood. Keep water temperature between 37° C. to 43° C.
2. […] 1.5% Bacto Agar for approximately 2 minutes on high, or until completely melted. Then let it cool somewhat before using it. (You can keep it from resolidifying by setting the bottle on the hot plate.) […]
3. Bottom Layer (0.6% agar) Top Layer (0.3% agar)
20% calf serum 20% calf serum
40% Bacto Agar (1.5%) 20% Bacto Agar (1.5%)
Depending on the volume of each layer needed, use either 50 mL conical tubes or 200 mL turnip tubes which can be floated in the "water bath".
4. Add 1 mL of bottom layer agar/medium to each well: deliver 1 mL warm agar/medium to a well; then using the tip of the pipet, spread the agar/medium around to completely cover the bottom. Repeat with next well.
5. Allow the plates to set at room temperature for about 5 minutes until the bottom layer solidifies.
6. Label sterile Falcon 2054 (12×75 mm) tubes and add appropriate volume of drug solutions into them.
7. Aliquot 4 AL of DMSO or drug solution per 1 mL of agar/medium to appropriate tubes; then add the agar/medium/cells to each tube. Always add 1 mL more than will actually be needed. Mix up and down in the pipet (gently); then deliver 1 mL to the center of each well. The upper layer is less viscous, so it will generally spread out over the bottom layer unaided. If necessary, rotate the plane of the plate gently to spread the top layer evenly over the bottom layer.
8. Let plates set for 5 or 10 minutes at room temperature to solidify, then put into 5% CO2, 37° C. incubator.
9. On Day 13, add 0.5 mL of INT (tetrazolium 1 mg/mL in Milli-Q H2 O, filter sterilized) and return plates to incubator.

[3] = system: ras farnesylation in ras-transformed cells; test: Gel shift assay; type: cell-based; conditions: ras-transformed cells, 18-hour incubation; read-out: Gel Shift (μM) MED (minimal effective dose to observe inhibition of ras farnesylation)
Description: Twenty-four hours after planting 2×10^6 ras-transformed cells per treatment condition, the farnesylation inhibitor is added at varying concentrations. Following an 18-hour incubation period, cells are lysed in phosphate-buffered saline containing 1% Triton X-100, 0.5% sodium deoxycholate, and 0.1% SDS (sodium dodecyl sulfate), pH 7.4 in the presence of several protease inhibitors (PMSF (phenylmethylsulfonylfluoride), antipain, leupeptin, pepstatin A, and aprotinin all at 1 μg/mL). Ras protein is immunoprecipitated from the supernatants by the addition of 3 μg v-H-ras Ab-2 (Y13-259 antibody from Oncogene Science). After overnight immunoprecipitation, 30 μL of a 50% protein G-Sepharose slurry (Pharmacia) is added followed by 45-minute incubation. Pellets are resuspended in 2× tris-glycine loading buffer (Novex) containing 5% β-mercaptoethanol and then denatured by 5 minutes boiling prior to electrophoresis on 14% Tris-glycine SDS gels. Using Western transfer techniques, proteins are transferred to nitrocellulose membranes followed by blocking in blocking buffer. Upon overnight incubation with primary antibody (pan-ras Ab-2 from Oncogene Science), an antimouse HRP (horse radish peroxidase) conjugate secondary antibody (Amersham) is employed for detection of the ras protein. Blots are developed using ECL(enhanced chemiluminescence) techniques (Amersham).

[4] = HEPES buffer pH 7.4, without 5 mM potassium phosphate, read-out: IC50 (μM) Hepes
[5] = HEPES buffer pH 7.4 containing 5 mM potassium phosphate, read-out: IC50 (μM) 5 mM K3 PO4 -2

T1 sequence (Q02293 whole entry, one chain of several): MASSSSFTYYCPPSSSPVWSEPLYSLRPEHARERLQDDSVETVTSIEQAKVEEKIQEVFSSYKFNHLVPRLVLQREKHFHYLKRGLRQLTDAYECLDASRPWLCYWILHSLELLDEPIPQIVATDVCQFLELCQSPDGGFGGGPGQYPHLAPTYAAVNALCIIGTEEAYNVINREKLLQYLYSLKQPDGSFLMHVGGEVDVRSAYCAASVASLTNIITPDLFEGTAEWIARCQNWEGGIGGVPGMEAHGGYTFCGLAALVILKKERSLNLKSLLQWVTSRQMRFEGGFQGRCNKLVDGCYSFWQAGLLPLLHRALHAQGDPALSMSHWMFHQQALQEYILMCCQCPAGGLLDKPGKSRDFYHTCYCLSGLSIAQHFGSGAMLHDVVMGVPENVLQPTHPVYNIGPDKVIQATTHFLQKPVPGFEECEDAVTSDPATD

| Compound | IC50 [1, 4] [µM] | IC50 [1, 5] [µM] | IC50 ([2]; 312 h) [nM] | minimal effective concentration [3] [µM] | IC50 [2] [nM] |
| --- | --- | --- | --- | --- | --- |
| O=C(CN(Cc1ccc(OCc2ccccc2)cc1)C(=O)[C@H](Cc1c[nH]cn1)NC(=O)OCc1ccccc1)NCC(c1ccccc1)c1ccccn1 (stereo partly drawn) [Example 12, (S)-[1-{(4-Benzyloxy-benzyl)-[(2-phenyl-2-pyridin-2-yl-ethylcarbamoyl)-methyl]-carbamoyl}-2-(1H-imidazole-4-yl)-ethyl]-carbamic Acid Benzyl Ester] | 1.1 | 0.062 | > 1000 | 0.2 | – |
| CC(CNC(=O)CN(Cc1ccc(Cl)cc1)C(=O)[C@H](Cc1c[nH]cn1)NC(=O)OCc1ccccc1)c1ccccc1 (stereo partly drawn) [Example 13, (S)-[1-{(4-Chloro-benzyl)-[(2-phenyl-propylcarbamoyl)-methyl]-carbamoyl}-2-(1H-imidazole-4-yl)-ethyl]-carbamic Acid Benzyl Ester] | 1.4 | 0.022 | > 1000 | 0.2 | – |
| O=C(CN(Cc1ccc(OCc2ccccc2)cc1)C(=O)[C@H](Cc1cnc[nH]1)NC(=O)OCc1ccccc1)NCC(O)c1ccccc1 (stereo partly drawn) [Example 14, (S)-[1-{(4-Benzyloxy-benzyl)-[(2-hydroxy-2-phenyl-ethylcarbamoyl)-methyl]-carbamoyl}-2-(3H-imidazole-4-yl)-ethyl]-carbamic Acid Benzyl Ester] | 1.6 | 0.066 | > 1000 | 0.05 | – |
| CCC(CNC(=O)CN(Cc1ccc(OCc2ccccc2)cc1)C(=O)[C@H](Cc1c[nH]cn1)NC(=O)OCc1ccccc1)c1ccccc1 (stereo partly drawn) [Example 16, (S)-[1-{(4-Benzyloxy-benzyl)-[(2-phenyl-butylcarbamoyl)-methyl]-carbamoyl}-2-(1H-imidazole-4-yl)-ethyl]-carbamic Acid Benzyl Ester] | 0.29 | 0.007 | 400 | 0.01 to 0.05 | – |
| CC(CNC(=O)CN(Cc1ccc(OCc2ccccc2)cc1)C(=O)[C@H](Cc1c[nH]cn1)NC(=O)CCc1ccccc1)c1ccccc1 (stereo partly drawn) [Example 17, (S)-N-(4-Benzyloxy-benzyl)-3-(1H-imidazole-4-yl)-2-(3-phenyl-proponylamino)-N-[(2-phenyl-propylcarbamoyl)-methyl]-propionamide] | 2.8 | 0.086 | – | 0.2 | > 1000 |
| CC(CNC(=O)CN(Cc1ccc(F)cc1)C(=O)[C@H](Cc1c[nH]cn1)NC(=O)OCc1ccccc1)c1ccccc1 (stereo partly drawn) [Example 18, (S)-[1-{(4-Fluoro-benzyl)-[(2-phenyl-propylcarbamoyl)-methyl]-carbamoyl}-2-(1H-imidazole-4-yl)-ethyl]-carbamic Acid Benzyl Ester] | 2.8 | 0.061 | > 1000 | 0.2 | – |
| Cc1ccc(CN(CC(=O)NCC(C)c2ccccc2)C(=O)[C@H](Cc2c[nH]cn2)NC(=O)OCc2ccccc2)cc1 (stereo partly drawn) [Example 19, (S)-(2-(1H-Imidazole-4-yl)-1-{(4-methyl-benzyl)-[(2-phenyl-propylcarbamoyl)-methyl]-carbamoyl}-ethyl)-carbamic Acid Benzyl Ester] | 1.26 | 0.015 | 660 | 0.05 | – |
| COc1ccc(CN(CC(=O)NCC(C)c2ccccc2)C(=O)[C@H](Cc2c[nH]cn2)NC(=O)OCc2ccccc2)cc1 (stereo partly drawn) [Example 20, (S)-(2-(1H-Imidazole-4-yl)-1-{(4-methoxy-benzyl)-[(2-phenyl-propylcarbamoyl)-methyl]-carbamoyl}-ethyl)-carbamic Acid Benzyl Ester] | 1.5 | 0.017 | 460 | 0.05 | – |
| CC(CNC(=O)CN(Cc1ccc(OCc2ccccc2)cc1)C(=O)[C@H](Cc1cnc[nH]1)NC(=O)OCc1ccccc1)c1ccccc1N (some centres unmarked) [Example 21] | 0.16 | 0.008 | – | 0.05 | 300 |
| CC(C)(CNC(=O)CN(Cc1ccc(F)cc1)C(=O)[C@H](Cc1c[nH]cn1)NC(=O)OCc1ccccc1)c1ccccc1 [Example 22, (S)-[1-{(4-Fluoro-benzyl)-[(2-methyl-2-phenyl-propylcarbamoyl)-methyl]-carbamoyl}-2-(1H-imidazole-4-yl)-ethyl]-carbamic Acid Benzyl Ester] | 1.2 | 0.016 | > 1000 | 0.2 | – |
| CC(CNC(=O)CN(Cc1ccccc1)C(=O)[C@H](Cc1c[nH]cn1)NC(=O)OCc1ccccc1)c1ccccc1 (stereo partly drawn) [Example 23, (S)-[1-{Benzyl-[(2-phenyl-propylcarbamoyl)-methyl]-carbamoyl}-2-(1H-imidazole-4-yl)-ethyl]-carbamic Acid Benzyl Ester] | 1.6 | 0.022 | > 1000 | 0.2 | – |
| O=C(CN(Cc1ccc(OCc2ccccc2)cc1)C(=O)[C@H](Cc1c[nH]cn1)NC(=O)OCc1ccccc1)NCC(c1ccccc1)c1ccccc1Cl (stereo partly drawn) [Example 24, (S)-[1-((4-Benzyloxy-benzyl)-{[2-(2-chloro-phenyl)-2-phenyl-ethylcarbamoyl]-methyl}-carbamoyl)-2-(1H-imidazole-4-yl)-ethyl]-carbamic Acid Benzyl Ester] | 0.2 | 0.014 | 820 | 0.2 | – |
| CCC(CC)(CNC(=O)CN(Cc1ccc(OCc2ccccc2)cc1)C(=O)[C@H](Cc1cnc[nH]1)NC(=O)OCc1ccccc1)c1ccccc1 [Example 25, (S)-[1-{(4-Benzyloxy-benzyl)-[(2-ethyl-2-phenyl-butylcarbamoyl)-methyl]-carbamoyl}-2-(3H-imidazole-4-yl)-ethyl]-carbamic Acid Benzyl Ester] | 0.93 | 0.032 | 890 | 0.2 | – |
| CCC(CNC(=O)CN(Cc1ccc(OCc2ccccc2)cc1)C(=O)[C@H](Cc1c[nH]cn1)NC(=O)NCc1ccccc1)c1ccccc1 (stereo partly drawn) [Example 27, (S)-N-(4-Benzyloxy-benzyl)-2-(3-benzyl-ureido)-3-(1H-imidazole-4-yl)-N-[(2-phenyl-butylcarbamoyl)-methyl]-propionamide] | 0.12 | 0.014 | > 1000 | 0.2 | – |
